Where a name gives a salt, the structure may show the parent alone.
Key:
vertigo = assay: Vertigo in clinical tests; format: in vivo, man
adrenergic receptors = assay: α-blocking action: reversal of the hypertensive effect of adrenalin; format: in vivo, dogs
Solubility in water = format: physicochemical
digestive ulcers = settings: TOLDY et al. 1966; cited from earlier work

| Compound | vertigo (vertigo) | α-blocking activity (adrenergic receptors; administered parenterally) | solubility in water (Solubility in water) | activity in the treatment of digestive ulcers (digestive ulcers) | α-blocking activity (counteracting the hypertensive effects of adrenalin) (adrenergic receptors; orally to dogs) |
| --- | --- | --- | --- | --- | --- |
| OCCN1CCN(CC2COc3ccccc3O2)CC1 (centres unmarked) [Example 1, 1-[2-(1,4-Benzodioxanyl)-methyl]-4-(2-hydroxyethyl)-piperazine dihydrochloride] | caused vertigo in the majority of cases | α-blocking | soluble in water |  |  |
| OCCN1CCN(CC2COc3ccccc3O2)CC1 (centres unmarked) [free base, 1-[2-(1,4-benzodioxanyl)-methyl]-4-(2-hydroxyethyl)-piperazine, reference compound] |  |  |  | devoid of such activity | does not show any α-blocking activity |
